{
  "source": "patent US12194080B2",
  "about": "“Methods for identification, assessment, prevention, and treatment of metabolic disorders using PM20D1 and N-lipidated amino acids” (Dana-Farber Cancer Institute, Inc., priority 2015, dated 2025)",
  "key": {"[1]": {"tested_on": "BAT mitochondria", "experiment": "Respiration of isolated crude BAT mitochondria", "format": "biochemical, mouse", "conditions": "10-100 μM; 10 mM pyruvate and 5 mM malate as substrates", "experimental": "BAT pads from ten 6-12 week old male mice were harvested and minced on ice in isolation buffer (250 mM sucrose, 5 mM HEPES, and 1 mM EGTA) supplemented with 2% fatty acid-free BSA (Sigma). The tissue was then homogenized in a Teflon homogenizer and centrifuged (8,500×g, 10 min, 4° C.). The supernatant was discarded, the pellet was re-suspended in 20 ml isolation buffer supplemented with 1% fatty acid-free BSA, and centrifuged (700×g, 10 min, 4° C.). The supernatant was centrifuged one final time (8,500×g, 10 min, 4° C.). The pellet was re-suspended in isolation buffer supplemented with 1% fatty acid-free BSA (200 μl) to yield crude BAT mitochondria at 50-80 mg/ml. For respiration measurements, BAT mitochondria were diluted to in mitochondria respiration buffer (5 mM KCl, 4 mM KH2PO4, 5 mM HEPES, 1 mM EGTA, 1% fatty acid free BSA, 10 mM pyruvate, 5 mM malate, and 1 mM GDP) and plated at 15 μg/well (50 μl total volume) in an XF24 cell culture microplate. The plate was centrifuged (1000×g, 20 min, 4° C.), additional pre-warmed mitochondrial respiration buffer was added (450 μl), and respiration was measured on a XF24 Extracellular Flux Analyzer. The Seahorse program was run as follows: basal measurement, 2 cycles; inject port A (compounds), 1 cycle, inject port B (FCCP), 1 cycle, inject port C (rotenone), 1 cycle. Each cycle consisted of mix 0.5 min, wait 0 min, measure 2 min. […]"}, "[2]": {"tested_on": "C2C12 cells", "experiment": "Mitochondrial membrane potential by TMRM fluorescence", "format": "cell-based, mouse", "conditions": "co-treatment with oligomycin 1 μM, 20 min; C18:1-Phe 50 μM, FCCP 0.4 μM", "experimental": "Mitochondrial membrane potential was measured using tetramethylrhodamine methyl ester (TMRM, Life Technologies) fluorescence. C2C12 cells were plated in 6-well plates and grown to 80-90% confluence. Cells were then washed once with PBS and switched into Seahorse respiration buffer with the indicated compounds at the indicated concentrations: TMRM (100 nM), oligomycin (1 μM), FCCP (0.4 μM), and C18:1-Phe (10 or 50 μM). After 20 min. incubation at 37° C., the media was aspirated, cells were washed once with PBS, and trypsinized. Trypsinized cells were directly resuspended in PBS (total volume 300 μl), stored on ice, and analyzed on a FACSCanto™ II (BD Biosciences) with 20,000 events per sample."}, "[3]": {"tested_on": "differentiated primary BAT cells", "experiment": "Cellular oxygen consumption rate (Seahorse XF24), differentiated primary BAT adipocytes", "format": "cell-based, mouse", "conditions": "50 μM, in presence of oligomycin (1 μM)", "experimental": "C2C12, U2O5, and 293A cells were cultured in DMEM with 10% FBS and pen/strep. Primary inguinal (iWAT) and brown (BAT) adipocytes were obtained as follows. The stromal-vascular fraction of inguinal (iWAT) pad from 4-12 week old male mice was dissected, minced, and digested for 45 min. at 37° C. in PBS containing 10 mM CaCl2, 2.4 U/ml dispase II (Roche), and 1.5 U/ml collagenase D (Roche). The stromal-vascular fraction of brown fat (BAT) pads from newborn (P1-P14) pups was dissected, minced, and digested for 45 min at 37° C. in PBS containing 1.3 mM CaCl2, 120 mM NaCl, 5 mM KCl, 5 mM glucose, 100 mM HEPES, 4% BSA, and 1.5 mg/ml collagenase B (Roche). […]\nCellular oxygen consumption rates were determined using an XF24 Extracellular Flux Analyzer (Seahorse Biosciences). […] C2C12 or U2OS cells were seeded at 30,000 or 50,000 cells/well, respectively in an XF24 cell culture microplate (V7-PS, Seahorse Bioscience) and analyzed the following day. Primary iWAT or BAT adipocytes were seeded at 15,000 cells/well, differentiation was induced the following day as described, and the cells were analyzed on day 5. […] For data expressed as a percentage of oligomycin-treated basal, the respiration at cycle 6 was normalized to 100%, and the maximum respiration at any time point between cycles 7 and 15 inclusive was used."}},
  "data": [
    {"smiles": "CCCCCCCC/C=C\\CCCCCCCC(=O)N[C@@H](Cc1ccccc1)C(=O)O", "note": "[C18:1-Phe, Oleoyl-L-phenylalanine]", "values": [
      {"measurement": "respiration of isolated mitochondria", "setting": "[1]", "value": "increased respiration in a dose-dependent manner"},
      {"measurement": "decrease of TMRM fluorescence", "setting": "[2]", "value": "~45", "unit": "%"},
      {"measurement": "maximal OCR versus DMSO at the same time point", "setting": "[3]", "value": 156, "unit": "%"},
      {"measurement": "maximal OCR versus oligomycin-treated basal respiration", "setting": "[3]", "value": 198, "unit": "%"}
    ]}
  ]
}
